Patent publication US20090137664A1, “SAURURUS CERNUUS COMPOUNDS THAT INHIBIT CELLULAR RESPONSES TO HYPOXIA” (priority 2003, published 2009)

Columns and labels:
Assay type in all cases: cell-based
MDA-MB-435 = experiment: NCI in vitro cell line screen (SRB), Breast Cancer MDA-MB-435
Protocol: (§1) For exemplary purposes, an embodiment of the present invention was tested for activity with respect to certain cancer cell lines. The following Tables show results from in vitro 60-cell line antitumor testing from the US National Cancer Institute Developmental Therapeutics Program (NCI-DTP) on compound 2. The testing was in connection with the NCI's In Vitro Cell Line Screening Project (IVCLSP). Detailed information regarding the experiments and their interpretation is available from the NCI.

OVCAR-8 = experiment: NCI in vitro cell line screen (SRB), Ovarian Cancer OVCAR-8
Protocol: as §1

tumor cell lines = experiment: NCI in vitro 60-cell line antitumor testing, GI50 pattern; conditions: GI50 60-cell line pattern
Protocol: as §1
Table 2 depicts the GI50 mean bar graph for tumor cell lines, grouped into various categories (such as colon, breast, etc.) The data are arranged to display the relative response selectivity of each cell line relative to one other. This form of data display is used to examine the relative tumor specificity of a text compound. The curves represent the response of each tumor cell line when treated with compound 2.
Antitumor agents with tumor-specific selectivity are highly desired, in order to reduce the incidence of non-selective cytotoxicity to patients. […] This is of special importance since this NCI/ADR-RES cell line is resistant to many currently used antitumor agents such as adriamycin, taxol, and others.

SN12C = experiment: NCI in vitro cell line screen (SRB), Renal Cancer SN12C
Protocol: as §1

NCI-H522 = experiment: NCI in vitro cell line screen (SRB), Non-Small Cell Lung Cancer NCI-H522
Protocol: as §1

NCI-H226 = experiment: NCI in vitro cell line screen (SRB), Non-Small Cell Lung Cancer NCI-H226
Protocol: as §1

RXF 393 = experiment: NCI in vitro cell line screen (SRB), Renal Cancer RXF 393
Protocol: as §1

NCI-H460 = experiment: NCI in vitro cell line screen (SRB), Non-Small Cell Lung Cancer NCI-H460
Protocol: as §1

SF-295 = experiment: NCI in vitro cell line screen (SRB), CNS Cancer SF-295
Protocol: as §1

LOX IMVI = experiment: NCI in vitro cell line screen (SRB), Melanoma LOX IMVI
Protocol: as §1

PC-3 = experiment: NCI in vitro cell line screen (SRB), Prostate Cancer PC-3
Protocol: as §1

[1] = Homo sapiens, read-out: LC50 (the source's name)

COc1ccc([C@@H](O)[C@@H](C)Oc2ccc([C@H]3O[C@H](c4ccc(O[C@H](C)[C@H](O)c5ccc6c(c5)OCO6)c(OC)c4)[C@H](C)[C@H]3C)cc2OC)cc1OC [Compound 2, manassantin B]
TGI (MDA-MB-435): >1.00E−4 Molar
GI50 (MDA-MB-435; Homo sapiens): 1.88 µM
CC50 (MDA-MB-435; [1]): > 100 µM
Mean Optical Densities (MDA-MB-435; Log10 Concentration −4.0 Molar): 0.534
Percent Growth (MDA-MB-435; Log10 Concentration −4.0 Molar): 1%
Mean Optical Densities (MDA-MB-435; Log10 Concentration −5.0 Molar): 0.605
Percent Growth (MDA-MB-435; Log10 Concentration −5.0 Molar): 10%
Mean Optical Densities (MDA-MB-435; Log10 Concentration −6.0 Molar): 1.079
Percent Growth (MDA-MB-435; Log10 Concentration −6.0 Molar): 65%
Mean Optical Densities (MDA-MB-435; Log10 Concentration −7.0 Molar): 1.179
Percent Growth (MDA-MB-435; Log10 Concentration −7.0 Molar): 77%
Mean Optical Densities (MDA-MB-435; Log10 Concentration −8.0 Molar): 1.122
Percent Growth (MDA-MB-435; Log10 Concentration −8.0 Molar): 70%
TGI (OVCAR-8): >1.00E−4 Molar
GI50 (OVCAR-8; Homo sapiens): 23.7 µM
CC50 (OVCAR-8; [1]): > 100 µM
Mean Optical Densities (OVCAR-8; Log10 Concentration −4.0 Molar): 0.873
Percent Growth (OVCAR-8; Log10 Concentration −4.0 Molar): 46%
Mean Optical Densities (OVCAR-8; Log10 Concentration −5.0 Molar): 0.952
Percent Growth (OVCAR-8; Log10 Concentration −5.0 Molar): 53%
Mean Optical Densities (OVCAR-8; Log10 Concentration −6.0 Molar): 1.298
Percent Growth (OVCAR-8; Log10 Concentration −6.0 Molar): 82%
Mean Optical Densities (OVCAR-8; Log10 Concentration −7.0 Molar): 1.092
Percent Growth (OVCAR-8; Log10 Concentration −7.0 Molar): 65%
Mean Optical Densities (OVCAR-8; Log10 Concentration −8.0 Molar): 1.311
Percent Growth (OVCAR-8; Log10 Concentration −8.0 Molar): 83%
selectivity for tumor cell lines (tumor cell lines): up to 10,000 fold
TGI (SN12C): >1.00E−4 Molar
GI50 (SN12C; Homo sapiens): 35.2 µM
CC50 (SN12C; [1]): > 100 µM
Mean Optical Densities (SN12C; Log10 Concentration −4.0 Molar): 0.594
Percent Growth (SN12C; Log10 Concentration −4.0 Molar): 42%
Mean Optical Densities (SN12C; Log10 Concentration −5.0 Molar): 0.669
Percent Growth (SN12C; Log10 Concentration −5.0 Molar): 59%
Mean Optical Densities (SN12C; Log10 Concentration −6.0 Molar): 0.723
Percent Growth (SN12C; Log10 Concentration −6.0 Molar): 72%
Mean Optical Densities (SN12C; Log10 Concentration −7.0 Molar): 0.775
Percent Growth (SN12C; Log10 Concentration −7.0 Molar): 84%
Mean Optical Densities (SN12C; Log10 Concentration −8.0 Molar): 0.770
Percent Growth (SN12C; Log10 Concentration −8.0 Molar): 82%
TGI (NCI-H522): >1.00E−4 Molar
GI50 (NCI-H522; Homo sapiens): 3.38 µM
CC50 (NCI-H522; [1]): > 100 µM
Mean Optical Densities (NCI-H522; Log10 Concentration −4.0 Molar): 0.760
Percent Growth (NCI-H522; Log10 Concentration −4.0 Molar): 9%
Mean Optical Densities (NCI-H522; Log10 Concentration −5.0 Molar): 0.919
Percent Growth (NCI-H522; Log10 Concentration −5.0 Molar): 35%
Mean Optical Densities (NCI-H522; Log10 Concentration −6.0 Molar): 1.119
Percent Growth (NCI-H522; Log10 Concentration −6.0 Molar): 67%
Mean Optical Densities (NCI-H522; Log10 Concentration −7.0 Molar): 1.099
Percent Growth (NCI-H522; Log10 Concentration −7.0 Molar): 64%
Mean Optical Densities (NCI-H522; Log10 Concentration −8.0 Molar): 1.087
Percent Growth (NCI-H522; Log10 Concentration −8.0 Molar): 62%
TGI (NCI-H226): 1.77E−5 Molar
GI50 (NCI-H226; Homo sapiens): 0.483 µM
LC50 (concentration killing 50% of cells) (NCI-H226; Homo sapiens): > 100 µM
Mean Optical Densities (NCI-H226; Log10 Concentration −4.0 Molar): 0.559
Percent Growth (NCI-H226; Log10 Concentration −4.0 Molar): −16%
Mean Optical Densities (NCI-H226; Log10 Concentration −5.0 Molar): 0.678
Percent Growth (NCI-H226; Log10 Concentration −5.0 Molar): 5%
Mean Optical Densities (NCI-H226; Log10 Concentration −6.0 Molar): 0.765
Percent Growth (NCI-H226; Log10 Concentration −6.0 Molar): 36%
Mean Optical Densities (NCI-H226; Log10 Concentration −7.0 Molar): 0.885
Percent Growth (NCI-H226; Log10 Concentration −7.0 Molar): 79%
Mean Optical Densities (NCI-H226; Log10 Concentration −8.0 Molar): 0.822
Percent Growth (NCI-H226; Log10 Concentration −8.0 Molar): 57%
TGI (RXF 393): >1.00E−4 Molar
GI50 (RXF 393; Homo sapiens): > 100 µM
CC50 (RXF 393; [1]): > 100 µM
Mean Optical Densities (RXF 393; Log10 Concentration −4.0 Molar): 0.930
Percent Growth (RXF 393; Log10 Concentration −4.0 Molar): 53%
Mean Optical Densities (RXF 393; Log10 Concentration −5.0 Molar): 0.993
Percent Growth (RXF 393; Log10 Concentration −5.0 Molar): 62%
Mean Optical Densities (RXF 393; Log10 Concentration −6.0 Molar): 1.170
Percent Growth (RXF 393; Log10 Concentration −6.0 Molar): 85%
Mean Optical Densities (RXF 393; Log10 Concentration −7.0 Molar): 1.267
Percent Growth (RXF 393; Log10 Concentration −7.0 Molar): 98%
Mean Optical Densities (RXF 393; Log10 Concentration −8.0 Molar): 1.226
Percent Growth (RXF 393; Log10 Concentration −8.0 Molar): 92%
TGI (NCI-H460): >1.00E−4 Molar
GI50 (NCI-H460; Homo sapiens): 2.12 µM
LC50 (concentration killing 50% of starting cells) (NCI-H460; Homo sapiens): > 100 µM
Mean Optical Densities (NCI-H460; Log10 Concentration −4.0 Molar): 0.285
Percent Growth (NCI-H460; Log10 Concentration −4.0 Molar): 11%
Mean Optical Densities (NCI-H460; Log10 Concentration −5.0 Molar): 0.492
Percent Growth (NCI-H460; Log10 Concentration −5.0 Molar): 28%
Mean Optical Densities (NCI-H460; Log10 Concentration −6.0 Molar): 0.895
Percent Growth (NCI-H460; Log10 Concentration −6.0 Molar): 61%
Mean Optical Densities (NCI-H460; Log10 Concentration −7.0 Molar): 1.030
Percent Growth (NCI-H460; Log10 Concentration −7.0 Molar): 72%
Mean Optical Densities (NCI-H460; Log10 Concentration −8.0 Molar): 1.011
Percent Growth (NCI-H460; Log10 Concentration −8.0 Molar): 70%
TGI (SF-295): 7.46E−5 Molar
GI50 (SF-295; Homo sapiens): < 0.01 µM
CC50 (SF-295; [1]): > 100 µM
Mean Optical Densities (SF-295; Log10 Concentration −4.0 Molar): 0.523
Percent Growth (SF-295; Log10 Concentration −4.0 Molar): −2%
Mean Optical Densities (SF-295; Log10 Concentration −5.0 Molar): 0.621
Percent Growth (SF-295; Log10 Concentration −5.0 Molar): 11%
Mean Optical Densities (SF-295; Log10 Concentration −6.0 Molar): 0.851
Percent Growth (SF-295; Log10 Concentration −6.0 Molar): 39%
Mean Optical Densities (SF-295; Log10 Concentration −7.0 Molar): 0.811
Percent Growth (SF-295; Log10 Concentration −7.0 Molar): 34%
Mean Optical Densities (SF-295; Log10 Concentration −8.0 Molar): 0.751
Percent Growth (SF-295; Log10 Concentration −8.0 Molar): 27%
TGI (LOX IMVI): >1.00E−4 Molar
GI50 (LOX IMVI; Homo sapiens): 2.19 µM
CC50 (LOX IMVI; [1]): > 100 µM
Mean Optical Densities (LOX IMVI; Log10 Concentration −4.0 Molar): 0.353
Percent Growth (LOX IMVI; Log10 Concentration −4.0 Molar): 12%
Mean Optical Densities (LOX IMVI; Log10 Concentration −5.0 Molar): 0.396
Percent Growth (LOX IMVI; Log10 Concentration −5.0 Molar): 18%
Mean Optical Densities (LOX IMVI; Log10 Concentration −6.0 Molar): 0.703
Percent Growth (LOX IMVI; Log10 Concentration −6.0 Molar): 66%
Mean Optical Densities (LOX IMVI; Log10 Concentration −7.0 Molar): 0.743
Percent Growth (LOX IMVI; Log10 Concentration −7.0 Molar): 73%
Mean Optical Densities (LOX IMVI; Log10 Concentration −8.0 Molar): 0.778
Percent Growth (LOX IMVI; Log10 Concentration −8.0 Molar): 78%
TGI (PC-3): 1.77E−5 Molar
GI50 (PC-3; Homo sapiens): 2.37 µM
CC50 (PC-3; [1]): > 100 µM
Mean Optical Densities (PC-3; Log10 Concentration −4.0 Molar): 0.152
Percent Growth (PC-3; Log10 Concentration −4.0 Molar): −30%
Mean Optical Densities (PC-3; Log10 Concentration −5.0 Molar): 0.268
Percent Growth (PC-3; Log10 Concentration −5.0 Molar): 10%
Mean Optical Densities (PC-3; Log10 Concentration −6.0 Molar): 0.588
Percent Growth (PC-3; Log10 Concentration −6.0 Molar): 74%
Mean Optical Densities (PC-3; Log10 Concentration −7.0 Molar): 0.668
Percent Growth (PC-3; Log10 Concentration −7.0 Molar): 90%
Mean Optical Densities (PC-3; Log10 Concentration −8.0 Molar): 0.665
Percent Growth (PC-3; Log10 Concentration −8.0 Molar): 89%
